Assay results taken from patent publication US7928090B2, “External preparation composition” (Lion Corporation, priority 2002, dated 2011).

Key:
[1] = tested on: guinea pig skin; test: Continuous irritative test of guinea pig skin (Draize method); format: in vivo, guinea pig (Hartley series); details: 0.5% in ethanol/propylene glycol (7:3), 3 days straight, full marks 8 points
Experimental: Each left and right two spots (4 spots/head) of applying parts having a frame of 2 cm×2 cm were provided on the back of a shaved guinea pig (Hartley series, 7 weeks of age, female, N=10), and each 50 μL of an ethanol/propylene glycol (7:3) solution containing 0.5% of the respective acyl glucosamine derivatives shown in the following Table 1 was applied once a day on the respective frames.
A skin irritative score after application for 3 days straight was evaluated according to the following evaluation criteria (Draize method). The above irritative score was shown by the total points (full marks: 8 points) of erythema and edema.
Evaluation Criteria of Skin Irritative Score:
3: middle to strong erythema
4: very strong erythema to crust
1: very slight edema formation
2: slight edema formation
3: middle edema formation
4: strong edema formation

[2] = tested on: acne patients; test: Acne-improvement evaluation; format: in vivo, human; details: essence with 0.05%, applied on face several times a day, one month
Experimental: Prepared was an essence for acne shown in the following composition example in which 0.05% of various acyl glucosamine derivatives shown in the following Table 6 was blended. An essence which was not blended with an acyl glucosamine derivative was prepared as a control.
Sixty acne patients were picked up as subjects to apply everyday the respective essences on the faces thereof several times a day, and the therapeutic effect against the acnes was visually evaluated a month later according to four degrees of the following evaluation criteria.
In the four degree evaluation described above, improvement (∘) or better effect (⊚) was regarded as “effective for treating acnes”, and the subjects showing a treating effect were shown by a numerical value (percentage).

[3] = Table 1, 50 μL once a day, total of erythema and edema

SMILES	Draize score ([1]; Table 2, by stereoisomer ratio)	Draize score [1, 3]	further results
CC(=O)OC[C@H]1OC(OC(C)=O)[C@H](NC(=O)/C=C(C)/C=C/C=C(C)/C=C/C2=C(C)CCCC2(C)C)[C@@H](OC(C)=O)[C@@H]1OC(C)=O (single isomer, unassigned) [1,3,4,6-tetra-O-acetyl-N-retinoyl-D-glucosamine (9-cis isome] [listing 1 of 2 here]	0.0 points	–	–
CC(=O)OC[C@H]1OC(OC(C)=O)[C@H](NC(=O)/C=C(C)/C=C/C=C(C)/C=C/C2=C(C)CCCC2(C)C)[C@@H](OC(C)=O)[C@@H]1OC(C)=O (single isomer, unassigned) [1,3,4,6-tetra-O-acetyl-N-retinoyl-D-glucosamine (9-cis isome] [listing 2 of 2 here]	0.0 points	–	–
CC(=O)OC[C@H]1OC(OC(C)=O)[C@H](NC(=O)/C=C(C)/C=C/C=C(C)/C=C/C2=C(C)CCCC2(C)C)[C@@H](OC(C)=O)[C@@H]1OC(C)=O (single isomer, unassigned) [1,3,4,6-tetra-O-acetyl-N-retinoyl-D-glucosamine (13-cis isom]	0.0 points	–	–
CC(=O)OC[C@H]1OC(OC(C)=O)[C@H](NC(=O)/C=C(C)/C=C/C=C(C)/C=C/C2=C(C)CCCC2(C)C)[C@@H](OC(C)=O)[C@@H]1OC(C)=O (single isomer, unassigned) [1,3,4,6-tetra-O-acetyl-N-retinoyl-D-glucosamine (cis isomer/]	0.0 points	–	–
CC(C=CC1=C(C)CCCC1(C)C)=CC=CC(C)=CC(=O)N[C@H]1C(O)O[C@H](CO)[C@@H](O)[C@@H]1O (single isomer, unassigned) [N-retinoyl-D-glucosamine (9-cis isomer/13-cis isomer/trans i]	–	0.1 points	–
CC(C=CC1=C(C)CCCC1(C)C)=CC=CC(C)=CC(=O)N[C@H]1C(O)O[C@H](CO)[C@@H](O)[C@@H]1O (single isomer, unassigned) [N-retinoyl-D-glucosamine (9-cis isomer/trans isomer = 0.5/99.5), N-retinoyl-D-glucosamine]	0.1 points	–	–
CC(C=CC1=C(C)CCCC1(C)C)=CC=CC(C)=CC(=O)N[C@H]1C(O)O[C@H](CO)[C@@H](O)[C@@H]1O (single isomer, unassigned) [N-retinoyl-D-glucosamine (13-cis isomer/trans isomer = 0.5/99.5), N-retinoyl-D-glucosamine]	0.0 points	–	–
CC(C=CC1=C(C)CCCC1(C)C)=CC=CC(C)=CC(=O)N[C@H]1C(O)O[C@H](CO)[C@@H](O)[C@@H]1O (single isomer, unassigned) [N-retinoyl-D-glucosamine (cis isomer/trans isomer = 0/100), N-retinoyl-D-glucosamine]	0.0 points	–	–
CC(=O)OC[C@H]1OC(OC(C)=O)[C@H](NC(=O)/C=C(C)/C=C/C=C(C)/C=C/C2=C(C)CCCC2(C)C)[C@@H](OC(C)=O)[C@@H]1OC(C)=O (stereo partly drawn) [1,3,4,6-tetra-O-acetyl-N-retinoyl-D-glucosamine]	–	0.0 points	–
CC(C)CCCCCCCCCCCCCCC(=O)N[C@H]1C(O)O[C@H](CO)[C@@H](O)[C@@H]1O (stereo partly drawn) [N-isostearoyl-D-glucosamine]	–	0.1 points	Evaluation X (worsened), number of subjects [2]: 0; Evaluation Δ (no change), number of subjects [2]: 2; Evaluation ⊚ (notably improved), number of subjects [2]: 0; Evaluation ◯ (improved), number of subjects [2]: 3
CCCCCCCCCCCC(=O)N[C@H]1C(O)O[C@H](CO)[C@@H](O)[C@@H]1O (stereo partly drawn) [N-lauroyl-D-glucosamine]	–	0.1 points	Evaluation X (worsened), number of subjects [2]: 1; Evaluation Δ (no change), number of subjects [2]: 1; Evaluation ⊚ (notably improved), number of subjects [2]: 0; Evaluation ◯ (improved), number of subjects [2]: 1
CCCCC/C=C\C/C=C\CCCCCCCC(=O)N[C@H]1C(O)O[C@H](CO)[C@@H](O)[C@@H]1O (stereo partly drawn) [N-linoleoyl-D-glucosamine]	–	0.3 points	Evaluation X (worsened), number of subjects [2]: 1; Evaluation Δ (no change), number of subjects [2]: 3; Evaluation ⊚ (notably improved), number of subjects [2]: 0; Evaluation ◯ (improved), number of subjects [2]: 1
CC1=C(/C=C/C(C)=C/C=C/C(C)=C/C(=O)O)C(C)(C)CCC1 [Retinoic acid, reference compound]	–	8.0 points	–
